Assay results published in US20140303373A1, “CRYSTALLINE FORM OF TIOTROPIUM BROMIDE” (CERBIOS-PHARMA SA, priority 2013, published 2014).

Columns and labels:
[1] = stability at 25° C./60% relative humidity (impurity profile and X-ray spectrum); assay type: physicochemical
[2] = accelerated stability study, related substances by HPLC (Eur. Ph. 07/2010:2420); assay type: physicochemical
Experimental: The tiotropium bromide accelerated stability studies were performed storing the drug substance, prepared as described in the previous examples, at 40±2° C./75±5% RH. Stability was evaluated in dark glass vial with screw cap. The frequency of the analyses performed has included five test points: 0, 7 days, 1, 3, and 6 months. Related substances amount of tiotropium bromide was measured by HPLC, following the Eur. Ph. procedure (07/2010:2420).

C[N+]1(C)C2CC(OC(=O)C(O)(c3cccs3)c3cccs3)CC1[C@@H]1O[C@H]21.[Br-] (some centres unmarked) [Tiotropium Bromide]
impurity profile and X-ray spectrum on storage [1]: did not change for at least six months
impurity profile and X-ray spectrum on storage ([2]; 40° C./75% RH): did not change for at least six months
Related substances: Impurity A, RRT 0.40-0.47 ([2]; 40±2° C./75±5% RH, 7 days): 0.02
Related substances: Impurity B, RRT 0.79-0.84 ([2]; 40±2° C./75±5% RH, 7 days): 0.04
Related substances: unnamed, RRT 0.98 ([2]; 40±2° C./75±5% RH, 7 days): 0.03
Related substances: unnamed, RRT 1.21-1.35 ([2]; 40±2° C./75±5% RH, 7 days): 0.01
Related substances: unnamed, RRT 1.22-1.37 ([2]; 40±2° C./75±5% RH, 7 days): 0.02
Sum of impurities ([2]; 40±2° C./75±5% RH, 7 days): 0.12
Tiotropium Bromide, RRT 1.00 (HPLC) ([2]; 40±2° C./75±5% RH, 7 days): 99.88
Related substances: Impurity A, RRT 0.40-0.47 ([2]; 40±2° C./75±5% RH, 30 d): 0.02
Related substances: Impurity B, RRT 0.79-0.84 ([2]; 40±2° C./75±5% RH, 30 d): 0.04
Related substances: unnamed, RRT 0.98 ([2]; 40±2° C./75±5% RH, 30 d): 0.03
Related substances: unnamed, RRT 1.22-1.37 ([2]; 40±2° C./75±5% RH, 30 d): 0.03
Sum of impurities ([2]; 40±2° C./75±5% RH, 30 d): 0.12
Tiotropium Bromide, RRT 1.00 (HPLC) ([2]; 40±2° C./75±5% RH, 30 d): 99.88
Related substances: Impurity A, RRT 0.40-0.47 ([2]; 40±2° C./75±5% RH, 90 d): 0.02
Related substances: Impurity B, RRT 0.79-0.84 ([2]; 40±2° C./75±5% RH, 90 d): 0.04
Related substances: Impurity E, RRT 1.73 ([2]; 40±2° C./75±5% RH, 90 d): 0.01
Related substances: unnamed, RRT 0.39 ([2]; 40±2° C./75±5% RH, 90 d): 0.02
Related substances: unnamed, RRT 0.98 ([2]; 40±2° C./75±5% RH, 90 d): 0.02
Related substances: unnamed, RRT 1.21-1.35 ([2]; 40±2° C./75±5% RH, 90 d): 0.02
Related substances: unnamed, RRT 1.22-1.37 ([2]; 40±2° C./75±5% RH, 90 d): 0.03
Related substances: unnamed, RRT 1.50-1.53 ([2]; 40±2° C./75±5% RH, 90 d): 0.01
Sum of impurities ([2]; 40±2° C./75±5% RH, 90 d): 0.17
Tiotropium Bromide, RRT 1.00 (HPLC) ([2]; 40±2° C./75±5% RH, 90 d): 99.83
Related substances: Impurity A, RRT 0.40-0.47 ([2]; 40±2° C./75±5% RH, 180 d): 0.02
Related substances: Impurity B, RRT 0.79-0.84 ([2]; 40±2° C./75±5% RH, 180 d): 0.04
Related substances: unnamed, RRT 0.98 ([2]; 40±2° C./75±5% RH, 180 d): 0.02
Related substances: unnamed, RRT 1.21-1.35 ([2]; 40±2° C./75±5% RH, 180 d): 0.02
Related substances: unnamed, RRT 1.22-1.37 ([2]; 40±2° C./75±5% RH, 180 d): 0.03
Related substances: unnamed, RRT 1.50-1.53 ([2]; 40±2° C./75±5% RH, 180 d): 0.01
Sum of impurities ([2]; 40±2° C./75±5% RH, 180 d): 0.14
Tiotropium Bromide, RRT 1.00 (HPLC) ([2]; 40±2° C./75±5% RH, 180 d): 99.86
Related substances: Impurity A, RRT 0.40-0.47 ([2]; 40±2° C./75±5% RH, Time 0): 0.02
Related substances: Impurity B, RRT 0.79-0.84 ([2]; 40±2° C./75±5% RH, Time 0): 0.04
Related substances: unnamed, RRT 0.98 ([2]; 40±2° C./75±5% RH, Time 0): 0.03
Related substances: unnamed, RRT 1.21-1.35 ([2]; 40±2° C./75±5% RH, Time 0): 0.01
Related substances: unnamed, RRT 1.22-1.37 ([2]; 40±2° C./75±5% RH, Time 0): 0.02
Related substances: unnamed, RRT 1.50-1.53 ([2]; 40±2° C./75±5% RH, Time 0): 0.01
Sum of impurities ([2]; 40±2° C./75±5% RH, Time 0): 0.13
Tiotropium Bromide, RRT 1.00 (HPLC) ([2]; 40±2° C./75±5% RH, Time 0): 99.87
